Laboratory results from patent US10501481B2, “Heterocyclic compounds and their use in preventing or treating bacterial infections” (priority 2015, dated 2019).

Assays:
[1] = tested on: K. pneumoniae 6299 (TEM-1, SHV-11, OXA-163); test: MIC broth microdilution, alone and synergy with ceftazidime; conditions: for MIC: Klebsiella pneumoniae, read-out: MIC compounds of the invention alone; for MIC of CAZ in combination with compound at 4 μg/mL: strain 6299, compound fixed at 4 μg/mL
[2] = target: T1, OXA-48 (Klebsiella pneumoniae, UniProt Q6XEC0); test: β-lactamase inhibitory activity, nitrocefin hydrolysis; assay type: biochemical
T1 construct: made in house; host or cells: E. coli
Protocol: (§1) Enzyme activity was monitored by spectrophotometric measurement of nitrocefin (NCF-TOKU-E, N005) hydrolysis at 485 nm, at room temperature and in assay buffer A: 100 mM Phosphate pH7, 2% glycerol and 0.1 mg/mL Bovine serum albumin (Sigma, B4287). […] To a transparent polystyrene plate (Corning, 3628) were added in each well 5 μL DMSO or inhibitor dilutions in DMSO and 80 μL enzyme in buffer A. Plates were immediately read at 485 nm in a microplate spectrophotometer (BioTek, PowerWave HT) to enable background subtraction. After 30 min of pre-incubation at room temperature, 15 μL of NCF (200 μM final) were finally added in each well. Final enzyme concentrations were 0.1 nM (TEM-1), 0.075 nM (SHV-1), 0.4 nM (CTX-M-15), 1 nM (KPC-2), 0.2 nM (P99 AmpC), 0.2 nM (CMY-37), 0.4 nM (AmpC P. aeruginosa), 0.2 nM (OXA-1), 1.2 nM (OXA-11), 0.4 nM (OXA-15) and 0.3 nM (OXA-48). After 20 min incubation at room temperature, plates were once again read at 485 nm. Enzyme activity was obtained by subtracting the final signal by the background, and was converted to enzyme inhibition using non inhibited wells. IC50 curves were fitted to a classical Langmuir equilibrium model with Hill slope using XLFIT (IDBS).

[3] = tested on: E. coli RGN238 (OXA-1); test: MIC broth microdilution, alone and synergy with ceftazidime; conditions: for MIC: Escherichia coli, read-out: MIC compounds of the invention alone; for MIC of CAZ in combination with compound at 4 μg/mL: strain RGN238, compound fixed at 4 μg/mL
[4] = tested on: K. pneumoniae UFR68 (TEM-1, SHV-11, CTX-M-15, KPC-3); test: as above; conditions: for MIC: Klebsiella pneumoniae, read-out: MIC compounds of the invention alone; for MIC of CAZ in combination with compound at 4 μg/mL: strain UFR68, compound fixed at 4 μg/mL
[5] = tested on: K. pneumoniae BAA-1898 (TEM-1, SHV-11, SHV-12, KPC-2); test: microbe, parasite or virus in culture; assay type: cell-based; conditions: for MIC: Klebsiella pneumoniae, BAA1898, read-out: MIC compounds of the invention alone; for MIC of CAZ in combination with compound at 4 μg/mL: strain BAA-1898, compound fixed at 4 μg/mL
[6] = target: AmpC P. aeruginosa (Pseudomonas aeruginosa, UniProt P24735); test: biochemical
Protocol: Enzyme activity was monitored by spectrophotometric measurement of nitrocefin (NCF-TOKU-E, N005) hydrolysis at 485 nm, at room temperature and in assay buffer A: 100 mM Phosphate pH7, 2% glycerol and 0.1 mg/mL Bovine serum albumin (Sigma, B4287). Enzymes were cloned in E. coli expression vector, expressed and purified in house using classical procedures. To a transparent polystyrene plate (Corning, 3628) were added in each well 5 μL DMSO or inhibitor dilutions in DMSO and 80 μL enzyme in buffer A. Plates were immediately read at 485 nm in a microplate spectrophotometer (BioTek, PowerWave HT) to enable background subtraction. After 30 min of pre-incubation at room temperature, 15 μL of NCF (200 μM final) were finally added in each well. Final enzyme concentrations were 0.1 nM (TEM-1), 0.075 nM (SHV-1), 0.4 nM (CTX-M-15), 1 nM (KPC-2), 0.2 nM (P99 AmpC), 0.2 nM (CMY-37), 0.4 nM (AmpC P. aeruginosa), 0.2 nM (OXA-1), 1.2 nM (OXA-11), 0.4 nM (OXA-15) and 0.3 nM (OXA-48). After 20 min incubation at room temperature, plates were once again read at 485 nm. Enzyme activity was obtained by subtracting the final signal by the background, and was converted to enzyme inhibition using non inhibited wells. IC50 curves were fitted to a classical Langmuir equilibrium model with Hill slope using XLFIT (IDBS).

[7] = tested on: P. aeruginosa CIP105250 (OXA-15); test: MIC broth microdilution, compounds alone; conditions: Pseudomonas aeruginosa, CIP105250, read-out: MIC compounds of the invention alone
[8] = target: T2, OXA-15 (Pseudomonas aeruginosa, UniProt Q51574); test: β-lactamase inhibitory activity, nitrocefin hydrolysis; assay type: biochemical
T2 construct: made in house; host or cells: E. coli
Protocol: as §1

[9] = tested on: E. coli UFR32 (TEM-1, VEB-1, OXA-10); test: MIC broth microdilution, alone and synergy with ceftazidime; conditions: for MIC of CAZ in combination with compound at 4 μg/mL: strain UFR32, compound fixed at 4 μg/mL
[10] = tested on: K. pneumoniae 200047 (TEM-1, SHV-32, CTX-M-15, OXA-1); test: as above; conditions: for MIC: Klebsiella pneumoniae, read-out: MIC compounds of the invention alone; for MIC of CAZ in combination with compound at 4 μg/mL: strain 200047, compound fixed at 4 μg/mL
[11] = tested on: E. cloacae UFR70 (TEM-1, CTX-M-15, CMY-2, OXA-1, Porin loss); test: as above; conditions: for MIC: Enterobacter cloacae, read-out: MIC compounds of the invention alone; for MIC of CAZ in combination with compound at 4 μg/mL: strain UFR70, compound fixed at 4 μg/mL
[12] = tested on: K. oxytoca UFR21 (TEM-1, CTX-M-15, OXA-48); test: as above; conditions: for MIC: Klebsiella oxytoca, read-out: MIC compounds of the invention alone; for MIC of CAZ in combination with compound at 4 μg/mL: strain UFR21, compound fixed at 4 μg/mL
[13] = target: T3, TEM-1 (Escherichia coli, UniProt P62593); test: β-lactamase inhibitory activity, nitrocefin hydrolysis; assay type: biochemical; conditions: class (A); 30 min pre-incubation; nitrocefin 200 μM
T3 construct: made in house; host or cells: E. coli
Protocol: as §1

[14] = target: T4, OXA-1 (Escherichia coli, UniProt P13661); test: as above; assay type: biochemical
T4 construct: made in house; host or cells: E. coli
Protocol: as §1

[15] = tested on: E. coli 190317 (TEM-1, SHV-12, CTX-M-15, OXA-1); test: MIC broth microdilution, alone and synergy with ceftazidime; conditions: for MIC of CAZ in combination with compound at 4 μg/mL: strain 190317, compound fixed at 4 μg/mL
[16] = target: T5, P99 AmpC (Enterobacter cloacae, UniProt P05364); test: β-lactamase inhibitory activity, nitrocefin hydrolysis; assay type: biochemical; conditions: class (C); 30 min pre-incubation; nitrocefin 200 μM
T5 construct: made in house; host or cells: E. coli
Protocol: as §1

[17] = tested on: P. aeruginosa CIP107051 (TEM-24); test: MIC broth microdilution, alone and synergy with ceftazidime; conditions: for MIC: Pseudomonas aeruginosa, CIP107051, read-out: MIC compounds of the invention alone; for MIC of CAZ in combination with compound at 4 μg/mL: strain CIP107051, compound fixed at 4 μg/mL
[18] = tested on: K. pneumoniae UFR24 (TEM-1, SHV-2, SHV-11, OXA-1, OXA-48, OXA-47); test: as above; conditions: for MIC of CAZ in combination with compound at 4 μg/mL: strain UFR24, compound fixed at 4 μg/mL
[19] = tested on: E. coli UFR52 (TEM-1, SHV-12, IMP-8); test: as above; conditions: for MIC: Escherichia coli, read-out: MIC compounds of the invention alone; for MIC of CAZ in combination with compound at 4 μg/mL: strain UFR52, compound fixed at 4 μg/mL
[20] = tested on: E. cloacae UFR38 (CTX-M-15, NDM-1); test: as above; conditions: for MIC: Enterobacter cloacae, read-out: MIC compounds of the invention alone; for MIC of CAZ in combination with compound at 4 μg/mL: strain UFR38, compound fixed at 4 μg/mL
[21] = tested on: E. cloacae UFR85 (TEM-1, CTX-M-15, derepressed AmpC); test: as above; conditions: for MIC of CAZ in combination with compound at 4 μg/mL: strain UFR85, compound fixed at 4 μg/mL
[22] = tested on: E. coli UFR18 (CTX-M-15, OXA-204); test: as above; conditions: for MIC: Escherichia coli, read-out: MIC compounds of the invention alone; for MIC of CAZ in combination with compound at 4 μg/mL: strain UFR18, compound fixed at 4 μg/mL
[23] = Escherichia coli, read-out: MIC compounds of the invention alone

AmpC P. aeruginosa, sequence (P24735 27-397): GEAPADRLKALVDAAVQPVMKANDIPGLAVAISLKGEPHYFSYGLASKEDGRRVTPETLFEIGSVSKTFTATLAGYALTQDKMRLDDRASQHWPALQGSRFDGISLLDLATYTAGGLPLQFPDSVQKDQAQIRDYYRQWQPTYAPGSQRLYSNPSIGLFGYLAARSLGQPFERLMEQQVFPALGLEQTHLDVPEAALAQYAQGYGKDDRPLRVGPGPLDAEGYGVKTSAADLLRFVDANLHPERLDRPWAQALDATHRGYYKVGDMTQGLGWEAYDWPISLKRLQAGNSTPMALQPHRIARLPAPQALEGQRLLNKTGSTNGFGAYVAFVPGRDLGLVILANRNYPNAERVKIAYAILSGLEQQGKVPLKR
T1 sequence (Q6XEC0 23-265 limits assumed): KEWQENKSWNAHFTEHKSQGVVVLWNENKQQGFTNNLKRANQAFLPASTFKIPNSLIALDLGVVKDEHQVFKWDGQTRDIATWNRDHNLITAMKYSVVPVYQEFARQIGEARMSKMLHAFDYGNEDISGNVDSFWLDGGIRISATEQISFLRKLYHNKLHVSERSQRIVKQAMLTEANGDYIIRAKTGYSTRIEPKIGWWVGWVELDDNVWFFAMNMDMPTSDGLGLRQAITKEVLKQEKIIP
T4 sequence (P13661 26-276): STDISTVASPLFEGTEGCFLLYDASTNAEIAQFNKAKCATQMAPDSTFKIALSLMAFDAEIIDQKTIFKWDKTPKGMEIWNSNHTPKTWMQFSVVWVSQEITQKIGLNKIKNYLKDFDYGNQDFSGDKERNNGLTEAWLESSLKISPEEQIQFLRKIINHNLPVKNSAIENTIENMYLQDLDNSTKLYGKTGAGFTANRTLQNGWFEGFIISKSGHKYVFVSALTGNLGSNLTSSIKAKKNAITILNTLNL
T5 sequence (P05364 21-381): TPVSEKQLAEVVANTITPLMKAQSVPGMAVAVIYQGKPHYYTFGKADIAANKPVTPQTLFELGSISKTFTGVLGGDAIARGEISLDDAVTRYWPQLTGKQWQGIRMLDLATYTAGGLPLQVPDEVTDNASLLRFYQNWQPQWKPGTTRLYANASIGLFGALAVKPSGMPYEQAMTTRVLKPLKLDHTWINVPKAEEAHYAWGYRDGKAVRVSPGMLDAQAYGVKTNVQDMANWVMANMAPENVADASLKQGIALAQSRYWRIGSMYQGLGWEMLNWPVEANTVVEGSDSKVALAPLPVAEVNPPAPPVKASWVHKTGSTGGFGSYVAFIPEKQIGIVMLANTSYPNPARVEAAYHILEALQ
T2 sequence (Q51574 22-275): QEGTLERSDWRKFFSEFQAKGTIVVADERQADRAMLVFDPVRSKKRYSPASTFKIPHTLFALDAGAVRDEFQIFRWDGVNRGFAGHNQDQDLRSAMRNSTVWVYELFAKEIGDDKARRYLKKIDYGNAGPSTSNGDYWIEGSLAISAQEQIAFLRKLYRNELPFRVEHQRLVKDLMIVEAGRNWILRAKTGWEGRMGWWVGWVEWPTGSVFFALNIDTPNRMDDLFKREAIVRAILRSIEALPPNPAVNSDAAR
T3 sequence (P62593 24-286 limits assumed): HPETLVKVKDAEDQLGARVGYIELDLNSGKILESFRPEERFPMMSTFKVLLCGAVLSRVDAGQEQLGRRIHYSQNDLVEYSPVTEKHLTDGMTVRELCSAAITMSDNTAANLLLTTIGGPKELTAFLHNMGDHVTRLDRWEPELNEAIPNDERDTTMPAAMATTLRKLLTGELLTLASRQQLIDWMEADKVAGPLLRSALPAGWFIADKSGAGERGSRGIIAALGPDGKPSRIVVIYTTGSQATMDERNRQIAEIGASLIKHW

SMILES | MIC [1] [µg/mL] | MIC of CAZ in combination with compound at 4 μg/mL [1] [µg/mL] | IC50 [2] [nM] | MIC [3] [µg/mL] | MIC of CAZ in combination with compound at 4 μg/mL [3] [µg/mL] | MIC of CAZ in combination with compound at 4 μg/mL [4] [µg/mL] | MIC [5] [µg/mL] | IC50 [6] [nM] | MIC [7] [µg/mL] | IC50 [8] [nM] | MIC of CAZ in combination with compound at 4 μg/mL [9] [µg/mL] | MIC of CAZ in combination with compound at 4 μg/mL [10] [µg/mL] | MIC of CAZ in combination with compound at 4 μg/mL [11] [µg/mL] | MIC [12] [µg/mL] | MIC of CAZ in combination with compound at 4 μg/mL [12] [µg/mL] | IC50 [13] [nM] | IC50 [14] [nM] | MIC of CAZ in combination with compound at 4 μg/mL [15] [µg/mL] | IC50 [16] [nM] | MIC [17] [µg/mL] | further results
Cn1c2c(sc1=O)C1CN(C2)C(=O)N1OS(=O)(=O)[O-].[Na+] (centres unmarked) [Example 1, Sodium (5-methyl-4,9-dioxo-3-thia-5,8,10-triaza-tricyclo[6.2.1.0^2.6]undec-2(6)-en-10-yl) sulfate] | 16 | 4 | 0.89 | 2 | <0.25 | 64 | 16 | 190 | > 32 | 250 | <0.25 | <0.25 | <0.25 | 8 | 2 | 3.3 | 63 | ≤0.125 | 48 | > 128 | MIC [4]: 32 µg/mL; MIC of CAZ in combination with compound at 4 μg/mL [5]: 64 µg/mL; MIC [10]: 4 µg/mL; MIC [11]: 4 µg/mL; MIC of CAZ in combination with compound at 4 μg/mL [17]: 4 µg/mL; MIC of CAZ in combination with compound at 4 μg/mL [18]: 4 µg/mL; MIC [19]: 8 µg/mL; MIC of CAZ in combination with compound at 4 μg/mL [19]: 0.5 µg/mL; MIC [20]: 8 µg/mL; MIC of CAZ in combination with compound at 4 μg/mL [20]: >128 µg/mL; MIC of CAZ in combination with compound at 4 μg/mL [21]: <0.25 µg/mL; MIC [22]: 4 µg/mL; MIC of CAZ in combination with compound at 4 μg/mL [22]: <0.25 µg/mL
COC(=O)Cn1c2c(sc1=O)C1CN(C2)C(=O)N1OS(=O)(=O)[O-].[Na+] (centres unmarked) [Example 2, Sodium [5-(2-methoxy-2-oxo-ethyl)-4,9-dioxo-3-thia-5,8,10-triaza-tricyclo[6.2.1.0^2.6]undec-2(6)-en-10-yl] sulfate] | 8 | 4 | 0.67 | 1 | <0.25 | 32 | 32 | 220 | > 32 | 57 | <0.25 | <0.25 | 1 | 8 | 16 | 0.64 | 38 | <0.25 | 16 | > 32 | MIC [4]: 32 µg/mL; MIC of CAZ in combination with compound at 4 μg/mL [17]: 16 µg/mL; MIC ([18]; Klebsiella pneumoniae, read-out: MIC compounds of the invention alone): 16 µg/mL; MIC of CAZ in combination with compound at 4 μg/mL [18]: 4 µg/mL; MIC [19]: 8 µg/mL; MIC [20]: 8 µg/mL; MIC of CAZ in combination with compound at 4 μg/mL [20]: >128 µg/mL; MIC of CAZ in combination with compound at 4 μg/mL [21]: 16 µg/mL; MIC [22]: 4 µg/mL; MIC of CAZ in combination with compound at 4 μg/mL [22]: 0.5 µg/mL
NCCn1c2c(sc1=O)C1CN(C2)C(=O)N1OS(=O)(=O)[O-].[Na+] (centres unmarked) [Example 4, Sodium and 2,2,2-trifluoroacetate [5-(2-azaniumethyl)-4,9-dioxo-3-thia-5,8,10-triaza-tricyclo[6.2.1.0^2.6]undec-2(6)-en-10-yl] sulfate] | 32 | ≤0.125 | 4.1 | 8 | <0.25 | <0.25 | 16 | 1200 | 8 | 300 | <0.25 | <0.25 | <0.25 | 4 | <0.25 | 4.6 | 460 | <0.25 | 140 | 16 | MIC of CAZ in combination with compound at 4 μg/mL [5]: ≤0.125 µg/mL; MIC [9, 23]: 1 µg/mL; MIC [10]: 8 µg/mL; MIC [11]: 4 µg/mL; MIC [15, 23]: 1 µg/mL; MIC of CAZ in combination with compound at 4 μg/mL [17]: 4 µg/mL; MIC of CAZ in combination with compound at 4 μg/mL [18]: ≤0.25 µg/mL; MIC [19]: 2 µg/mL; MIC of CAZ in combination with compound at 4 μg/mL [19]: <0.25 µg/mL; MIC [20]: 0.5 µg/mL; MIC of CAZ in combination with compound at 4 μg/mL [20]: <0.25 µg/mL; MIC ([21]; Enterobacter cloacae, read-out: MIC compounds of the invention alone): 2 µg/mL; MIC of CAZ in combination with compound at 4 μg/mL [21]: <0.25 µg/mL; MIC [22]: 0.5 µg/mL; MIC of CAZ in combination with compound at 4 μg/mL [22]: <0.25 µg/mL
